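GI50 is the concentration that inhibits growth by half. TGI: total growth inhibition.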
Legend:
Assay in all cases: NCI anticancer screen, dose series, 384-well format
HCT-116 colon = test system: HCT-116 colon
M14 melanoma = test system: M14 melanoma
HOP-92 NSCLC = test system: HOP-92 NSCLC
U251 glioblastoma = test system: U251 glioblastoma
EKVX NSCLC = test system: EKVX NSCLC
HCT-15 colon = test system: HCT-15 colon
CAKI-1 renal = test system: CAKI-1 renal
UACC-257 melanoma = test system: UACC-257 melanoma
MCF7 breast = test system: MCF7 breast
SNB-75 CNS = test system: SNB-75 CNS
NCI-H460 NSCLC = test system: NCI-H460 NSCLC
A549 NSCLC = test system: A549 NSCLC
A498 renal = test system: A498 renal
TK-10 renal = test system: TK-10 renal
SR leukemia = test system: SR leukemia
PC-3 prostate = test system: PC-3 prostate
OVCAR-5 ovarian = test system: OVCAR-5 ovarian
786-0 renal = test system: 786-0 renal
OVCAR-3 ovarian = test system: OVCAR-3 ovarian
SK-MEL-5 melanoma = test system: SK-MEL-5 melanoma
NCI/ADR-RES ovarian = test system: NCI/ADR-RES ovarian
MDA-MB-435 melanoma = test system: MDA-MB-435 melanoma
NCI-H23 lung = test system: NCI-H23 lung
NCI-H522 lung = test system: NCI-H522 lung
NCI-H226 lung = test system: NCI-H226 lung
HT29 colon = test system: HT29 colon
RXF 393 renal = test system: RXF 393 renal
SN12C renal = test system: SN12C renal
UO-31 renal = test system: UO-31 renal
IGROV1 ovarian = test system: IGROV1 ovarian

C[C@H]1CN(C2COC2)CCN1c1ccc(Nc2cc(-c3ccnc(N4CCn5c(cc6c5CC(C)(C)C6)C4=O)c3CO)cn(C)c2=O)nc1
TGI (HCT-116 colon): > 52.4 µM
GI50 (M14 melanoma): 35 µM
TGI (M14 melanoma): > 54.7 µM
GI50 (HOP-92 NSCLC): 1.15 µM
TGI (HOP-92 NSCLC): 6.86 µM
GI50 (U251 glioblastoma): 41.4 µM
TGI (U251 glioblastoma): > 100 µM
GI50 (EKVX NSCLC): 76.9 µM
TGI (EKVX NSCLC): > 100 µM
GI50 (HCT-15 colon): 28.3 µM
TGI (HCT-15 colon): > 55.3 µM
GI50 (CAKI-1 renal): 17.8 µM
TGI (CAKI-1 renal): > 48.1 µM
GI50 (UACC-257 melanoma): 16.4 µM
TGI (UACC-257 melanoma): 34.5 µM
GI50 (MCF7 breast): 14.1 µM
TGI (MCF7 breast): > 44 µM
GI50 (SNB-75 CNS): 30.5 µM
TGI (SNB-75 CNS): 81.6 µM
GI50 (NCI-H460 NSCLC): 37.7 µM
TGI (NCI-H460 NSCLC): > 100 µM
GI50 (A549 NSCLC): 18.5 µM
TGI (A549 NSCLC): > 54.3 µM
GI50 (A498 renal): 14.3 µM
TGI (A498 renal): 28.2 µM
GI50 (TK-10 renal): 17 µM
TGI (TK-10 renal): 32.8 µM
GI50 (SR leukemia): 5.31 µM
TGI (SR leukemia): 18.4 µM
GI50 (PC-3 prostate): 28.1 µM
TGI (PC-3 prostate): 90.1 µM
GI50 (OVCAR-5 ovarian): 24.1 µM
TGI (OVCAR-5 ovarian): > 67.1 µM
GI50 (786-0 renal): 21.8 µM
TGI (786-0 renal): > 52.2 µM
GI50 (OVCAR-3 ovarian): 10.7 µM
TGI (OVCAR-3 ovarian): 24.7 µM
GI50 (SK-MEL-5 melanoma): 27.8 µM
TGI (SK-MEL-5 melanoma): > 48.2 µM
GI50 (NCI/ADR-RES ovarian): 20.8 µM
TGI (NCI/ADR-RES ovarian): 55.9 µM
GI50 (MDA-MB-435 melanoma): 26.2 µM
TGI (MDA-MB-435 melanoma): > 55.9 µM
GI50 (NCI-H23 lung): 33.5 µM
TGI (NCI-H23 lung): > 78.7 µM
GI50 (NCI-H522 lung): 12.7 µM
TGI (NCI-H522 lung): 37.2 µM
GI50 (NCI-H226 lung): 11.8 µM
TGI (NCI-H226 lung): 28.4 µM
GI50 (HT29 colon): 20.5 µM
TGI (HT29 colon): > 50.1 µM
GI50 (RXF 393 renal): 3.89 µM
TGI (RXF 393 renal): 26.8 µM
GI50 (SN12C renal): 20.2 µM
TGI (SN12C renal): 44.5 µM
GI50 (UO-31 renal): 16.2 µM
TGI (UO-31 renal): 29.8 µM
GI50 (IGROV1 ovarian): 15.5 µM
TGI (IGROV1 ovarian): 33.9 µM

From PubChem BioAssay (NCI)
